Measured values reported in US9994515B2, “Aryl naphthyl methanone oxime(s) and process for preparation thereof” (Council of Scientific & Industrial Research, priority 2013, dated 2018).
Counter-ions that a name gives are not always drawn.

Columns and labels:
[1] = tested on: HCT116; test: Sulphorhodamine B assay in HCT116 colon cancer cells; type: cell-based; settings: Homo sapiens, HCT-116; SRB assay
[2] = molecular target: T1, Her2 (Homo sapiens, UniProt P04626); test: Her2 phosphorylation ELISA in MCF-7 cells; type: cell-based
T1 construct: Serum starved (A,C) MCF-7 cells and (B,D) MDA-MB231 cells were pre-incubated for 1 h; endogenous in cells; host or cells: MCF-7
T1 sequence (P04626 23-1255): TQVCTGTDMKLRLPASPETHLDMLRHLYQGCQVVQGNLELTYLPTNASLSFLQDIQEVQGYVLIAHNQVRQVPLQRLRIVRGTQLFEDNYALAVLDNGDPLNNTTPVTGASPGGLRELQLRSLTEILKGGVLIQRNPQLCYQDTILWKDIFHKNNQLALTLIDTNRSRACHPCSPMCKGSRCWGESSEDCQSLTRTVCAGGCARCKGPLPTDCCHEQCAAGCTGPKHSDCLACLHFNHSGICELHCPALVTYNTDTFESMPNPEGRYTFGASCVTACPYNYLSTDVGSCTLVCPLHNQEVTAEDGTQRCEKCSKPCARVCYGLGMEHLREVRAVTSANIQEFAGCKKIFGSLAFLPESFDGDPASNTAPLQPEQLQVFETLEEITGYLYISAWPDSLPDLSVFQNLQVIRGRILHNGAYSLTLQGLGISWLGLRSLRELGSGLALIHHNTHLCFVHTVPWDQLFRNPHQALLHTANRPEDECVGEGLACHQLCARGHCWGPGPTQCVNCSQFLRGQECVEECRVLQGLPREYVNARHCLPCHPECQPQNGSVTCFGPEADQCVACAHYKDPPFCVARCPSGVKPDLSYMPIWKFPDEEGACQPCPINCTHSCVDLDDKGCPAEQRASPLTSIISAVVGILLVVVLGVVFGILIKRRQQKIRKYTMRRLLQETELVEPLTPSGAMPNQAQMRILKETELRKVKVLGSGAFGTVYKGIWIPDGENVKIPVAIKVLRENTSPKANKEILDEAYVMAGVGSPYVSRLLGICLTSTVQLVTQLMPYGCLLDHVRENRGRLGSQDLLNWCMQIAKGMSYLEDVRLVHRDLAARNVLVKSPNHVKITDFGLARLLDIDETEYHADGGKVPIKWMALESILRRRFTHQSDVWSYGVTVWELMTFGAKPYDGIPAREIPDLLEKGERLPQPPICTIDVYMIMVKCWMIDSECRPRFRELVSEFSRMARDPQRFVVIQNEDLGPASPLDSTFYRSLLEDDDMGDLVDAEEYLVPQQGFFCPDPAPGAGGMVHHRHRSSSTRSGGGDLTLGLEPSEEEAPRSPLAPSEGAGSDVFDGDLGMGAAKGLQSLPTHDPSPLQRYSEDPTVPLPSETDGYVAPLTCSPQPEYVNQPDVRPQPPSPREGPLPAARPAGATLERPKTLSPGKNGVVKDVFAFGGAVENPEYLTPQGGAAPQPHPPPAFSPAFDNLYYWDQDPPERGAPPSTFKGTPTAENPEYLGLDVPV
Method: Since EGFR and Her2 play major roles in breast cancer development and metastatis, the effect of Centans on regulation of these two factors was evaluated in MCF-7 and MDA-MB-231 cells by enzyme-linked immunosorbant assays (ELISA). As depicted in FIGS. 7. A and B, EGF dependent EGFR phosphorylation at Tyr^1068 was strongly attenuated by Centans in both MCF-7 and MDA-MB-231 cells and this effect was much stronger than that of Gefitinib (marketted EGFR inhibitor/anti-cancer drug).
FIG. 7. Inhibition of EGFR and Her2 phosphorylation by Centans in MCF-7 and MDA-MB231 cells. Serum starved (A,C) MCF-7 cells and (B,D) MDA-MB231 cells were pre-incubated for 1 h with the indicated concentrations of Centans prior to stimulation with EGF for 15 min and EGFR (A and B) or Her2 (C and D) phosphorylation were measured by ELISA. Gef=Gefitinib. All doses are in μM.

[3] = tested on: CD133+ DLD1 colon cancer cells; test: CD133+ colon cancer stem cell population by flow cytometry; type: cell-based; settings: 20 uM, 24 h, vehicle 15.30%
Method: FIG. 9. Centans reduces CD133+ colon cancer stem cells with a higher efficacy than salinomycin. DLD1 colon cancer cells were treated with indicated compounds for 24h following which the CD133+ population was assessed by flow cytometry using CD133 antibody or relevant isotype control antibody (BD biosciences) in a Becton Dickinson FACS Calibur. Numbers in the dot plot represent % CD133+ cells.

[4] = tested on: Vero; test: Cytotoxicity in Vero kidney epithelial cells; type: cell-based, monkey
Method: To consider a molecule as a candidate compound in cancer drug therapy, the test compound must have specific cytotoxicity towards the cancer cells without affecting normal cell growth. Therefore, all active compounds were assessed for toxicity in non-cancer cell-lines: mouse fibroblast cell line (NIH3T3) and monkey kidney epithelial cells (Vero). […] Therefore, based on safety index ([…]), 5d [Centans; based on IUPAC name prefixed with Central Drug Research Institute's signature (Cent)] was selected as a lead compound.

[5] = tested on: Kasumi 1; test: Cytotoxicity in Kasumi 1 cells; type: cell-based; settings: Table 2; oxalate
[6] = tested on: K562; test: Differentiation of K562 cells (Wright-Giemsa staining); type: cell-based; settings: 0.5 μM; 3, 6 and 12 days
Source text: In order to clarify whether the inhibitory effects of Centans on the growth and cell cycle of K562 cells was followed by differentiation, Centans treated cells was stained with Wright-Giemsa stain. […] This differentiation was much more pronounced at 12d, where mature megakaryocytes were visible (FIG. 4A). Confirmation of Centans-mediated megakaryocytic differentiation was attained through measurement of expression of relevant cell differentiation markers by quantitative real time PCR. mRNA expression levels of cluster of differentiation 10 (CD10) (transiently present during B-cell maturation at early-B and pre-B lymphoblastic stages and related to megakaryocytic differentiation), CD36 (erythroid differentiation lineage), GATA2 (Over expression of GATA-2 inhibits erythroid and promotes megakaryocyte differentiation) and CD61 (megakaryocytic differentiation marker) was measured.
FIG. 4. CentANS induces Differentiation in K562 cells. […] (B) Expression of differentiation Markers—K562 cells were treated with vehicle; V (DMSO) or centANS and mRNA from these cells were isolated and reverse transcribed. cDNA was used to measure the expression CD10, GATA2, CD61, (megakaryocytic lineage markers) and CD36 (Erythroid lineage marker) by Quantitative Real time PCR, GAPDH was used as control. […]

[7] = tested on: K562; test: Annexin V/PI flow cytometry (phosphatidylserine exposure) in K562; type: cell-based; settings: 5 μM, 24 h
Method: To determine whether cell death caused by Centans is specifically associated with apoptosis: phosphatidylserine exposure (Annexine V/PI; Flow cytometry) was performed in K562 and HL-60 cell-lines. As apparent form FIG. 1, treatment with Centans caused a robust and dose-dependent increase in phosphatidylserine exposure, which reached 5 fold over vehicle with 5 μM ANS in K562 and about 3 fold in HL-60.
FIG. 1 Centans induces Apoptosis in K562 and HL-60 cells. (A and B) Centans increases phosphatidylserine exposure—K562 (A) and HL-60 (B) cells were treated with vehicle (DMSO) or Centans (dissolved in DMSO) at indicated concentrations for 24 h and phosphatidylserine exposure was assessed by flow cytometry using the FL1-H channel (Annexin-V) and FL2-H channel (PI). Representative dot plots and relative apoptotic cell in the graph are shown. C and D is the graphical representation of data pooled from three independent experiments. *P<0.05, **P<0.01 ***P<0.001 compared to vehicle treated control.

[8] = tested on: Colo205; test: Sulphorhodamine B assay in Colo205 colon cancer cells; type: cell-based; settings: Homo sapiens, COLO 205; SRB assay
[9] = molecular target: T2, BCR-ABL (Homo sapiens, UniProt P00519); test: BCR-ABL phosphorylation by immunoblotting in K562 cells; type: cell-based; settings: 0.5 μM, 1 μM Centans or 1 μM Imatinib, 48 h, western blot
T2 construct: Centans causes growth arrest and apoptosis in Bcr-Abl positive K562 cells; BCR (N-terminal part of breakpoint cluster region protein, P11274); endogenous in cells; host or cells: K562; the other entry of the earlier key: BCR (P11274, Breakpoint cluster region protein)
T2 sequence (P00519 with tags, fused parts or gaps): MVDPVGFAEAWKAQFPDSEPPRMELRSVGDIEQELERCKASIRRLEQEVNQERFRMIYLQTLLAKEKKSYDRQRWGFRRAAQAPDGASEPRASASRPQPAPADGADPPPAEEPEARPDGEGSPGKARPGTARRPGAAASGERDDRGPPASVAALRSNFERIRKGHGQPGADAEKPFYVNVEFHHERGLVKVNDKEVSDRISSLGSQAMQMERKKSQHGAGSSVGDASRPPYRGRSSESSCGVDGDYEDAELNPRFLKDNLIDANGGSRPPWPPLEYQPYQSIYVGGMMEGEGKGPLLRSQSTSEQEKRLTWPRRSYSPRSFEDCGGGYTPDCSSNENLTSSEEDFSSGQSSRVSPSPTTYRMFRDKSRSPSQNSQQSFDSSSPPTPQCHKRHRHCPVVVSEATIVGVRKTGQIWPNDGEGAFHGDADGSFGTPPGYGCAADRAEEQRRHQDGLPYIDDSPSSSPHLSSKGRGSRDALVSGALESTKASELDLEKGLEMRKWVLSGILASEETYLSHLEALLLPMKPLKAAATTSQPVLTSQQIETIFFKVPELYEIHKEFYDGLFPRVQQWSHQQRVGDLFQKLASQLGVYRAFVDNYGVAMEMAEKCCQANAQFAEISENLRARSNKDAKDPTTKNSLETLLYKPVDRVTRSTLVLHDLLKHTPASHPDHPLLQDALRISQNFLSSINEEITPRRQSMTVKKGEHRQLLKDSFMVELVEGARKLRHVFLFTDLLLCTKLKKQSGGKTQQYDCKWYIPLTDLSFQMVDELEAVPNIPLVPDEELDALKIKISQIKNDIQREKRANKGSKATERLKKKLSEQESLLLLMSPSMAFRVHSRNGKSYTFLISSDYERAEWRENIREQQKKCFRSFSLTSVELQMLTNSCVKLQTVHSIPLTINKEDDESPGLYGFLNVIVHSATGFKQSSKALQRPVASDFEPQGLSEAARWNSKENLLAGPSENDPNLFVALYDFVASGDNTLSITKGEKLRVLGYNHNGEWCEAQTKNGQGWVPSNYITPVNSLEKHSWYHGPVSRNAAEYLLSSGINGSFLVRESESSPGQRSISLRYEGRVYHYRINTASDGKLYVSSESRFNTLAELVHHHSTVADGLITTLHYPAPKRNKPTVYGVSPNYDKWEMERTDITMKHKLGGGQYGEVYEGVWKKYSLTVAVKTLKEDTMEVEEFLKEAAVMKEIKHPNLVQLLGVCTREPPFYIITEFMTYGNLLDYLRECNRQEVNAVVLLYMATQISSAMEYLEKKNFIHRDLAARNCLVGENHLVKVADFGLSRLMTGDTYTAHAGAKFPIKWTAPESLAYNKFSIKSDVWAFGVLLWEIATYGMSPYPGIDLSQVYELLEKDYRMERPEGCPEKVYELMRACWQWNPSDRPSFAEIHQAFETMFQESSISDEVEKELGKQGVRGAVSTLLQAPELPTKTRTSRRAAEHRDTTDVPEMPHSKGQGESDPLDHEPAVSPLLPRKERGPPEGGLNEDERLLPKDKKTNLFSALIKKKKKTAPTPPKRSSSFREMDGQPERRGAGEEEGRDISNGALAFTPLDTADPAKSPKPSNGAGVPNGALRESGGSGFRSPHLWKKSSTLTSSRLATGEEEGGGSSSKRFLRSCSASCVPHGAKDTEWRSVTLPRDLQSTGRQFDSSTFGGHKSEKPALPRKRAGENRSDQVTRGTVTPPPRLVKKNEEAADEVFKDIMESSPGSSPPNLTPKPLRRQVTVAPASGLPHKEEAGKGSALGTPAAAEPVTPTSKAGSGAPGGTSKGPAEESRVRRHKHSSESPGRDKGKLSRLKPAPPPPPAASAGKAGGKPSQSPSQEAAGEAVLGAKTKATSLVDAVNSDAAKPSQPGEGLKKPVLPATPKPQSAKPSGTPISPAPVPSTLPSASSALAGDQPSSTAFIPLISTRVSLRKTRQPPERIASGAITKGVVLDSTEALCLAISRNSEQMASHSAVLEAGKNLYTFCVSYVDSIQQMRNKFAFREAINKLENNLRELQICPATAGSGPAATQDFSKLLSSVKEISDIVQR
Method: Kinase activity of Bcr-Abl is the major cause of CML, and since Centans causes growth arrest and apoptosis in Bcr-Abl positive K562 cells, phosphorylation status of Bcr-Abl which is representative of its kinase activity was measured by immunoblotting.
FIG. 3. […] ELF4E and β-actin were used as loading control.

[10] = tested on: MDA-MB231; test: Annexin V/PI apoptosis flow cytometry in MDA-MB231; type: cell-based; settings: 24 h
Method: To assess if the cell death induced by centans in MCF-7 and MDA-MB231 lines is apoptotic in nature, apoptosis was measured by flow cytometry using annexin V/PI staining kit from Sigma according to manufacturer's instructions.
FIG. 6 Apoptosis induction by Centans in breast cancer cells. Annexin V/PI staining of (A) MCF-7 and (B) MDA-MB231 cells were treated with vehicle (DMSO) or Centans at indicated concentrations for 24 h and […] was assessed by flow cytometry using the FL1-H channel (Annexin-V) and FL2-H channel (PI) of a Becton Dickinson FACS Calibur. Shown are representative dot plots. Quantification of flow cytometry data shown as percent of total cells (right panel). Data presented as mean±SEM from three independent experiments; *P<0.05, **P<0.01, and ***P<0.001 compared to control.

For `CCN(CC)CCO/N=C(/c1ccc(SC)cc1)c1cccc2ccccc12` [Compound 5d, (4-(methylthio)phenyl)(naphthalen-1-yl)methanone O-2-(diethylamino)ethyl oxime oxalate], the IC50 [1] was 7.7 µM, the HER2 phosphorylation [2] was “significantly reduced HER2 phosphorylation in a dose-dependent manner” and the “CD133+ population after treatment (minus isotype control)” value [3] was 2.94%. For the same molecule, the “cytotoxicity in non-cancer cell-line Vero” value ([4]; MTT assay, solid tumor evaluation) was “not in non-cancer cell-lines Vero and HEK-293”, the IC50 ([4]; Primates, Vero, Table 2, normal cell line) was over 25 µM and the IC50 [5] was 6.78 µM. The “differentiation of K562 cells” value [6] was “capable of inducing differentiation in K562 cells in a dose-dependent manner”, the “increase in phosphatidylserine exposure over vehicle” value [7] was 5 fold and the IC50 [8] was 4.2 µM. For the same molecule, the “phosphorylation of BCR-ABL (pBCR-ABL)” value [9] was “dose dependently inhibited phosphorylation of BCR-ABL” and the apoptotic cell population [10] was “concentration-dependent increase in apoptotic cell population”.
